Experimental data as given in patent US20190161451A1, “HERBICIDAL PYRIMIDINE COMPOUNDS” (BASF SE, priority 2016, published 2019).

Experiments:
[1] = tested on: APESV; assay: greenhouse experiment, pre-emergence treatment; type: in vivo, Apera spica-venti; settings: pre-emergence method, scale from 0 to 100
Excerpt: (§1) The culture containers used were plastic flowerpots containing loamy sand with approximately 3.0% of humus as the substrate. The seeds of the test plants were sown separately for each species.
(§2) For the pre-emergence treatment, the active ingredients, which had been suspended or emulsified in water, were applied directly after sowing by means of finely distributing nozzles.
(§3) The containers were irrigated gently to promote germination and growth and subsequently covered with transparent plastic hoods until the plants had rooted. This cover caused uniform germination of the test plants, unless this had been impaired by the active ingredients.
(§4) Depending on the species, the plants were kept at 10-25° C. or 20-35° C., respectively.
(§5) The test period extended over 2 to 4 weeks. During this time, the plants were tended, and their response to the individual treatments was evaluated.
(§6) Evaluation was carried out using a scale from 0 to 100. 100 means no emergence of the plants, or complete destruction of at least the aerial moieties, and 0 means no damage, or normal course of growth. A good herbicidal activity is given at values of at least 70 and a very good herbicidal activity is given at values of at least 85.
(§7) The plants used in the greenhouse experiments were of the following species: […]

[2] = tested on: AMARE; assay: greenhouse experiment, post-emergence treatment; type: in vivo, Amaranthus retroflexus; settings: post-emergence method, scale from 0 to 100
Excerpt: as §1
(§8) For the post-emergence treatment, the test plants were first grown to a height of 3 to 15 cm, depending on the plant habit, and only then treated with the active ingredients which had been suspended or emulsified in water. For this purpose, the test plants were either sown directly and grown in the same containers, or they were first grown separately as seedlings and transplanted into the test containers a few days prior to treatment.
as §4, §5, §6, §7

[3] = tested on: ECHCG; assay: greenhouse experiment, pre-emergence treatment; type: in vivo, Echinocloa crus-galli; settings: pre-emergence method, scale from 0 to 100
Excerpt: as §1, §2, §3, §4, §5, §6, §7

[4] = tested on: ALOMY; assay: greenhouse experiment, post-emergence treatment; type: in vivo, Alopecurus myosuroides; settings: post-emergence method, scale from 0 to 100
Excerpt: as §1, §8, §4, §5, §6, §7

[5] = tested on: ECHCG; assay: greenhouse experiment, post-emergence treatment; type: in vivo, Echinocloa crus-galli; settings: post-emergence method, scale from 0 to 100
Excerpt: as §1, §8, §4, §5, §6, §7

[6] = tested on: SETVI; assay: greenhouse experiment, post-emergence treatment; type: in vivo, Setaria viridis; settings: post-emergence method, scale from 0 to 100
Excerpt: as §1, §8, §4, §5, §6, §7

[7] = tested on: ABUTH; assay: greenhouse experiment, post-emergence treatment; type: in vivo, Abutilon theophrasti; settings: post-emergence method, application rate 1000 g/ha, scale from 0 to 100
Excerpt: as §1, §8, §4, §5, §6, §7

Row | Compound | herbicidal activity against ECHCG ([3]; application rate 1000 g/ha) | herbicidal activity against ALOMY ([4]; application rate 1000 g/ha) | herbicidal activity against ECHCG ([5]; application rate 1000 g/ha) | other results
1 | O=C(O)c1nc(C2CC2)ncc1-c1cccc2c1OC(F)(F)O2 [example 2, 2-Cyclopropyl-5-(2,2-difluoro-1,3-benzodioxol-4-yl)pyrimidine-4-carboxylic Acid] | very good (a very good herbicidal activity is given at values of at least 85) | very good (a very good herbicidal activity is given at values of at least 85) |  | herbicidal activity against APESV ([1]; application rate 1000 g/ha): very good (a very good herbicidal activity is given at values of at least 85); herbicidal activity against AMARE ([2]; application rate 1000 g/ha): very good (a very good herbicidal activity is given at values of at least 85)
2 | COC(=O)c1nc(C2CC2)ncc1-c1c(Cl)sc2ccccc12 [example 4] | good (A good herbicidal activity is given at values of at least 70) | very good (a very good herbicidal activity is given at values of at least 85) |  | 
3 | O=C(O)c1nc(C2CC2)ncc1-c1cccc2c1OCC2 [example 5] | good (A good herbicidal activity is given at values of at least 70) |  | good (A good herbicidal activity is given at values of at least 70) | 
4 | COC(=O)c1nc(C2CC2)ncc1-c1cc2c(cc1Cl)OCO2 [example 9] |  |  | very good (a very good herbicidal activity is given at values of at least 85) | 
5 | O=C(O)c1nc(C2CC2)ncc1-c1cc2c(cc1Cl)OCO2 [example 10] | very good (a very good herbicidal activity is given at values of at least 85) | very good (a very good herbicidal activity is given at values of at least 85) | good (A good herbicidal activity is given at values of at least 70) | herbicidal activity against APESV ([1]; application rate 1000 g/ha): very good (a very good herbicidal activity is given at values of at least 85)
6 | COC(=O)c1nc(C2CC2)ncc1-c1c(Cl)ccc2c1OCO2 [example 11] | very good (a very good herbicidal activity is given at values of at least 85) | very good (a very good herbicidal activity is given at values of at least 85) |  | herbicidal activity against AMARE ([2]; application rate 1000 g/ha): good (A good herbicidal activity is given at values of at least 70)
7 | COC(=O)c1nc(C2CC2)ncc1-c1csc2ccccc12 [example 12, Methyl 5-(benzothiophen-3-yl)-2-cyclopropyl-pyrimidine-4-carboxylate] |  |  |  | herbicidal activity against ECHCG ([3]; application rate 2000 g/ha): very good (a very good herbicidal activity is given at values of at least 85)
8 | O=C(O)c1nc(C2CC2)ncc1-c1csc2ccccc12 [example 13] |  |  |  | herbicidal activity against AMARE ([2]; application rate 2000 g/ha): very good (a very good herbicidal activity is given at values of at least 85); herbicidal activity against ECHCG ([3]; application rate 2000 g/ha): very good (a very good herbicidal activity is given at values of at least 85); herbicidal activity against ALOMY ([4]; application rate 2000 g/ha): good (A good herbicidal activity is given at values of at least 70); herbicidal activity against ECHCG ([5]; application rate 2000 g/ha): good (A good herbicidal activity is given at values of at least 70)
9 | COC(=O)c1nc(C2CC2)ncc1-c1coc2ccccc12 [example 15] | very good (a very good herbicidal activity is given at values of at least 85) |  |  | herbicidal activity against SETVI ([6]; application rate 1000 g/ha): very good (a very good herbicidal activity is given at values of at least 85)
10 | O=C(O)c1nc(C2CC2)ncc1-c1coc2ccccc12 [example 16] |  |  |  | herbicidal activity against APESV ([1]; application rate 2000 g/ha): very good (a very good herbicidal activity is given at values of at least 85); herbicidal activity against ECHCG ([3]; application rate 2000 g/ha): very good (a very good herbicidal activity is given at values of at least 85); herbicidal activity against ECHCG ([5]; application rate 2000 g/ha): good (A good herbicidal activity is given at values of at least 70)
11 | COC(=O)c1nc(C2CC2)ncc1-c1c(Cl)sc2ccccc12 [example 17, Methyl 5-(2-chlorobenzothiophen-3-yl)-2-cyclopropyl-pyrimidine-4-carboxylate] |  |  |  | herbicidal activity against SETVI ([6]; application rate 2000 g/ha): very good (a very good herbicidal activity is given at values of at least 85)
12 | COC(=O)c1nc(C2CC2)ncc1-c1c(Cl)oc2ccccc12 [example 19] |  |  |  | herbicidal activity against ALOMY ([4]; application rate 2000 g/ha): good (A good herbicidal activity is given at values of at least 70)
13 | O=C(O)c1nc(C2CC2)ncc1-c1c(Cl)oc2ccccc12 [example 20] |  |  |  | herbicidal activity against APESV ([1]; application rate 2000 g/ha): very good (a very good herbicidal activity is given at values of at least 85)
14 | COC(=O)c1nc(C2CC2)ncc1-c1cc2c(cc1Br)OCO2 [example 24] |  | very good (a very good herbicidal activity is given at values of at least 85) | very good (a very good herbicidal activity is given at values of at least 85) | 
15 | COC(=O)c1nc(C2CC2)ncc1-c1cc2c(cc1I)OCO2 [example 28] | very good (a very good herbicidal activity is given at values of at least 85) | good (A good herbicidal activity is given at values of at least 70) | good (A good herbicidal activity is given at values of at least 70) | 
16 | O=C(O)c1nc(C2CC2)ncc1-c1cc2c(cc1I)OCO2 [example 29] |  |  |  | herbicidal activity against AMARE ([2]; application rate 1000 g/ha): very good (a very good herbicidal activity is given at values of at least 85)
17 | COC(=O)c1nc(C2CC2)ncc1-c1cccc2c1OCCO2 [example 30] |  |  |  | herbicidal activity against AMARE ([2]; application rate 1000 g/ha): very good (a very good herbicidal activity is given at values of at least 85)
18 | O=C(O)c1nc(C2CC2)ncc1-c1cccc2c1OCCO2 [example 31] | very good (a very good herbicidal activity is given at values of at least 85) |  | very good (a very good herbicidal activity is given at values of at least 85) | herbicidal activity against APESV ([1]; application rate 1000 g/ha): very good (a very good herbicidal activity is given at values of at least 85); herbicidal activity against AMARE ([2]; application rate 1000 g/ha): very good (a very good herbicidal activity is given at values of at least 85)
19 | COC(=O)c1nc(C2CC2)ncc1-c1c(Cl)cc2c(c1F)OCO2 [example 32] | very good (a very good herbicidal activity is given at values of at least 85) | good (A good herbicidal activity is given at values of at least 70) | good (A good herbicidal activity is given at values of at least 70) | 
20 | O=C(O)c1nc(C2CC2)ncc1-c1c(Cl)cc2c(c1F)OCO2 [example 33] | very good (a very good herbicidal activity is given at values of at least 85) | good (A good herbicidal activity is given at values of at least 70) | very good (a very good herbicidal activity is given at values of at least 85) | herbicidal activity against APESV ([1]; application rate 1000 g/ha): very good (a very good herbicidal activity is given at values of at least 85)
21 | COC(=O)c1nc(C2CC2)ncc1-c1c(Cl)cc2c(c1OC)OCO2 [example 35] |  |  |  | herbicidal activity against ABUTH [7]: very good (a very good herbicidal activity is given at values of at least 85)
22 | COc1c2c(cc(Cl)c1-c1cnc(C3CC3)nc1C(=O)O)OCO2 [example 36] |  | very good (a very good herbicidal activity is given at values of at least 85) | very good (a very good herbicidal activity is given at values of at least 85) | herbicidal activity against APESV ([1]; application rate 1000 g/ha): very good (a very good herbicidal activity is given at values of at least 85)
